Literature values in patent publication US20090010992A1 (priority 2007, published 2009).

Conditions: oral cherry-flavored syrup (Versed syrup)

Cc1ncc2n1-c1ccc(Cl)cc1C(c1ccccc1F)=NC2 [midazolam]
bioavailability (erratic): 30-50%
